Like-named read-outs stand apart in the source and are kept apart here.
Test system: HCV pseudoparticles (genotype 1a HCV E1 and E2 envelope, H77C isolate)
Test: microbe, parasite or virus in culture
Format: cell-based
Conditions: Hepatitis C virus
[1] = Huh-7, 48 h, read-out: Activity (EC50 class), HCV pseudoparticles, Huh7 cells, luciferase 2 days after infection, average of duplicates
[2] = Huh-7, 48 h, HCV pseudoparticles, Huh7 cells, luciferase 2 days after infection, average of duplicates
[3] = Huh-7, 48 h, HCV pseudoparticle infection of Huh7 cells, luciferase 2 days after infection, average of duplicates
[4] = Huh-7, 48 h, read-out: Activity (EC50 class), HCV pseudoparticle infection of Huh7 cells, luciferase 2 days after infection, EC50 expressed as class A/B
[5] = Huh-7, read-out: Activity (EC50 class), HCV pseudoparticles (genotype 1a, H77C) in Huh7 cells, EC50 expressed as class A/B

Compound	EC50 [4] [nM]	EC50 [5] [nM]	further results
CC(C)c1ccc(COc2nc(Nc3ccc(C(=O)NCC(C)(C)CNC(=O)C(=O)Nc4ccc(F)cc4F)c(F)c3)nc(NC3(c4ccc(Cl)cc4)CC3)n2)cc1 [Compound 3835, N^1-(3-(4-((4-((1-(4-chlorophenyl)cyclopropyl)amino)-6-((4-isopropylbenzyl)oxy)-1,3,5-triazin-2-yl)amino)-2-fluorobenzamido)-2,2-dimethylpropyl)-N^2-(2,4-difluorophenyl)oxalamide]	–	–	EC50 [1]: 0.01 to 10 nM
O=C(NCC[C@H](NC(=O)c1ccc(Nc2nc(NC3(c4ccc(Cl)cc4)CC3)nc(OCC(F)(F)F)n2)cc1)C(=O)O)C(=O)Nc1ccc(Oc2ccccc2)nc1 [Compound 3640]	–	–	EC50 [2]: 16.1 nM; EC50 [1]: 10 to 1000 nM
O=C(Nc1ccc(C(=O)O)cc1)C(=O)NC1CCCC1CNC(=O)c1ccc(Nc2nc(NC3(c4ccc(Cl)cc4)CC3)nc(OCC(F)(F)F)n2)cc1 (stereo not drawn) [Compound 1464]	0.01 to 10	–	EC50 [3]: 0.48 nM
COC(=O)[C@H](CCNC(=O)C(=O)Nc1cc(F)c(F)c(F)c1)NC(=O)c1ccc(Nc2nc(NC3(c4ccc(Cl)cc4)CC3)nc(OCC(F)(F)F)n2)cc1 [Compound 1504]	0.01 to 10	–	EC50 [3]: < 2.54 nM
COC(=O)/C(CCNC(=O)C(=O)Nc1ccc(C(F)(F)F)nc1)=N\C(=O)c1ccc(Nc2nc(NC3(c4ccc(Cl)cc4)CC3)nc(OCC(F)(F)F)n2)cc1 [Compound 3594]	–	0.01 to 10	–
CC(C)(CNC(=O)C(=O)Nc1ccc(/C=C/c2ccccc2)cc1)CNC(=O)c1ccc(Nc2nc(NC3(c4ccc(Cl)cc4)CC3)nc(OCC(F)(F)F)n2)cc1 [Compound 3143]	–	0.01 to 10	–
CC(C)(CNC(=O)C(=O)Nc1nc2ccc(S(N)(=O)=O)cc2s1)CNC(=O)c1ccc(Nc2nc(NC3(c4ccc(Cl)cc4)CC3)nc(OCC(F)(F)F)n2)cc1F [Compound 3678]	–	–	EC50 [1]: 0.01 to 10 nM
O=C(NCC[C@H](NC(=O)c1ccc(Nc2nc(NC3(c4ccc(Cl)cc4)CC3)nc(OCC(F)(F)F)n2)cc1)C(=O)O)C(=O)NCC1CC1c1cccc2c1OCO2 (stereo partly drawn) [Compound 1446]	0.01 to 10	–	–
COC(=O)[C@H](CCNC(=O)C(=O)Nc1ccc(Oc2ccncc2)cc1)NC(=O)c1ccc(Nc2nc(NC3(c4ccc(Cl)cc4)CC3)nc(OCC(F)(F)F)n2)cc1 [Compound 3323]	–	0.01 to 10	–
CC(O)(CNC(=O)C(N)=O)CNC(=O)c1ccc(Nc2nc(NC3(c4ccc(Cl)cc4)CC3)nc(OCC(F)(F)F)n2)cc1 (stereo not drawn) [Compound 3834]	–	–	EC50 [2]: 0.086 nM; EC50 [1]: 0.01 to 10 nM
O=C(NC[C@H](NC(=O)c1ccc(Nc2nc(NC3(c4ccc(Cl)cc4)CC3)nc(OCC(F)(F)F)n2)cc1)C(=O)O)C(=O)Nc1ccc(OC2CCOCC2)cc1 [Compound 3291]	–	0.01 to 10	–
COC(=O)[C@H](CCNC(=O)C(=O)NC(c1ccc(OC)cc1)C1CC1)NC(=O)c1ccc(Nc2nc(NC3(c4ccc(Cl)cc4)CC3)nc(OCC(F)(F)F)n2)cc1 (stereo partly drawn) [Compound 1418]	0.01 to 10	–	EC50 [3]: 0.28 nM
O=C(NCC1CCCO1)C(=O)NC[C@@H](NC(=O)c1ccc(Nc2nc(NC3(c4ccc(Cl)cc4)CC3)nc(OCC(F)(F)F)n2)cc1)C(=O)O (stereo partly drawn) [Compound 1042]	0.01 to 10	–	–
CC(=O)N1CCN(c2ccc(NC(=O)C(=O)NCCC(NC(=O)c3ccc(Nc4nc(NC5(c6ccc(Cl)cc6)CC5)nc(OCC(F)(F)F)n4)cc3)C(=O)O)cc2)CC1 (stereo not drawn) [Compound 3524]	–	0.01 to 10	–
Cc1ccc(NC(=O)C(=O)NCC(O)CNC(=O)c2ccc(Nc3nc(NC4(c5ccc(Cl)cc5)CC4)nc(OCC(F)(F)F)n3)cc2)cc1 (stereo not drawn) [Compound 3367]	–	0.01 to 10	–
COC(=O)[C@H](CNC(=O)C(=O)Nc1cccc(Oc2ccccn2)c1)NC(=O)c1ccc(Nc2nc(NC3(c4ccc(Cl)cc4)CC3)nc(OCC(F)(F)F)n2)cc1 [Compound 3726]	–	–	EC50 [1]: 0.01 to 10 nM
COC(=O)[C@H](CNC(=O)C(=O)NCC(C)c1ccccc1)NC(=O)c1ccc(Nc2nc(NC3(c4ccc(Cl)cc4)CC3)nc(OCC(F)(F)F)n2)cc1 (stereo partly drawn) [Compound 1283]	0.01 to 10	–	–
COC(=O)[C@@H](CCNC(=O)C(=O)NCC1(Cn2ccnc2)CC1)NC(=O)c1ccc(Nc2nc(NC3(c4ccc(Cl)cc4)CC3)nc(OCC(F)(F)F)n2)cc1 [Compound 1385]	0.01 to 10	–	–
COC(=O)[C@H](CNC(=O)C(=O)NC1(Cc2ccccc2)CC1)NC(=O)c1ccc(Nc2nc(NC3(c4ccc(Cl)cc4)CC3)nc(OCC(F)(F)F)n2)cc1 [Compound 1304]	0.01 to 10	–	–
CC(C)(CNC(=O)C(=O)Nc1ccc(C#N)cc1)CNC(=O)c1ccc(Nc2nc(NC3(c4ccc(Cl)cc4)CC3)nc(OCC(F)(F)F)n2)cc1F [Compound 3516]	–	0.01 to 10	–
O=C(NC[C@H](NC(=O)c1ccc(Nc2nc(NC3(c4ccc(Cl)cc4)CC3)nc(OCC(F)(F)F)n2)cc1)C(=O)O)C(=O)NC1CCCCCC1 [Compound 1175]	0.01 to 10	–	–
Cn1nccc1NC(=O)C(=O)NC[C@H](NC(=O)c1ccc(Nc2nc(NC3(c4ccc(Cl)cc4)CC3)nc(OCC(F)(F)F)n2)cc1)C(=O)O [Compound 1368]	0.01 to 10	–	–

Reference: patent publication US8916702B2 (priority 2012, dated 2014)
